Data on ten molecules can be found in PubChem BioAssay (NCI).

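Five concentrations, 48 hours, 96-well plates. GI50: concentration for 50% inhibition of growth. TGI denotes the concentration required for complete inhibition of growth.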 Bounds are passed on as bounds.

Among the test systems are BT-549 breast; HCT-15 colon; HL-60(TB) leukemia; HT29 colon; KM12 colon; MALME-3M melanoma; NCI-H23 lung; SF-295 CNS; T-47D breast; LOX IMVI melanoma.
Holding throughout (assay): growth of human tumour cells (NCI), 48 h

Regarding `CS(=O)c1ccc(-c2nc(-c3ccc(F)cc3)c(-c3ccncc3)[nH]2)cc1` (centres undefined), the GI50 is 21 µM in the test on BT-549 breast; 30.2 µM with HCT-15 colon; 23 µM in the test on HL-60(TB) leukemia; 10.7 µM in the test on HT29 colon; 35.9 µM with KM12 colon; 14.2 µM with MALME-3M melanoma. Further, the GI50 is 59.2 µM in the test with NCI-H23 lung, 29.1 µM with SF-295 CNS and 18 µM with T-47D breast. Moreover, the TGI in the test on BT-549 breast is 72.4 µM; in the test on HCT-15 colon, more than 100 µM; in the test with HL-60(TB) leukemia, 53.1 µM; in the test on HT29 colon it was more than 89.4 µM; in the test on KM12 colon, more than 100 µM; in the test with MALME-3M melanoma, 64.9 µM. Also, the TGI is more than 100 µM with NCI-H23 lung, more than 71.6 µM in the test with SF-295 CNS and more than 100 µM with T-47D breast.

Regarding `COc1cc(-c2nn(C(=O)NS(=O)(=O)c3ccc(C)cc3)cc2-c2ccncc2)ccc1Cl`, the GI50 was 2.66 µM in the test with BT-549 breast; 10.2 µM in the test on HCT-15 colon; 4.63 µM in the test on HL-60(TB) leukemia; 2.89 µM in the test with HT29 colon; 11 µM with KM12 colon; 3.54 µM in the test on LOX IMVI melanoma. Also, the results for the GI50 with MALME-3M melanoma, in the test with NCI-H23 lung and in the test on T-47D breast were 4.14 µM, 5.27 µM and 6.34 µM, respectively. Also, the TGI with BT-549 breast stood at 10.6 µM; in the test on HCT-15 colon, 44.7 µM; in the test with HL-60(TB) leukemia it was 24.9 µM; in the test on HT29 colon, 17.6 µM; in the test on KM12 colon, 43.5 µM; with LOX IMVI melanoma, 18.1 µM. Moreover, the values for the TGI with MALME-3M melanoma, with NCI-H23 lung and with T-47D breast were 15.6 µM, 28.9 µM and 31.2 µM, respectively.

With `COc1ccc(/C(Cl)=C(\C=O)c2ccc(OC)c(OC)c2)cc1OC`, the TGI was more than 100 µM in the test with BT-549 breast; more than 100 µM with HCT-15 colon; more than 100 µM in the test on HL-60(TB) leukemia; more than 67.9 µM in the test with HT29 colon; more than 100 µM with KM12 colon; more than 100 µM in the test with LOX IMVI melanoma. Moreover, the TGI in the test with MALME-3M melanoma was more than 100 µM; in the test with NCI-H23 lung, more than 100 µM; in the test with SF-295 CNS, 48.2 µM.

On to `CN1CCN(Cc2ccc(NC(=O)c3[nH]ncc3Nc3ncnc4sccc34)cc2)CC1`, for which the GI50 with BT-549 breast was 1.23 µM; in the test on HCT-15 colon, 0.254 µM; in the test on HL-60(TB) leukemia, 0.334 µM; in the test on KM12 colon, 0.297 µM; with LOX IMVI melanoma, 0.213 µM; with SF-295 CNS, 0.325 µM. Further, in the test with T-47D breast, the GI50 was 0.699 µM. Besides, the TGI with BT-549 breast is 5.56 µM; in the test with HCT-15 colon it was more than 100 µM; with HL-60(TB) leukemia, 1.07 µM; in the test on KM12 colon, more than 100 µM; in the test on LOX IMVI melanoma, 1.07 µM; in the test on SF-295 CNS it was more than 100 µM. Moreover, the TGI in the test with T-47D breast is more than 100 µM.

Take `O=C(O)C(Br)C(Br)c1ccccc1[N+](=O)[O-]` (centres undefined): the TGI in the test with BT-549 breast, in the test with HCT-15 colon, in the test on HT29 colon, with KM12 colon, in the test on LOX IMVI melanoma and in the test on MALME-3M melanoma was more than 100 µM throughout. The TGI in the test on NCI-H23 lung, with SF-295 CNS and with T-47D breast was more than 100 µM in each case.

Consider `O=C1NC(=O)C2(CCC(O)C2)c2cc[n+]([O-])cc21` (centres undefined), for which the TGI in the test with BT-549 breast, with HCT-15 colon, in the test on HT29 colon, in the test with KM12 colon, in the test on LOX IMVI melanoma and in the test with MALME-3M melanoma was more than 100 µM throughout. Moreover, the TGI in the test with NCI-H23 lung, in the test on SF-295 CNS and in the test on T-47D breast was more than 100 µM throughout.

For the molecule `COc1ccc(NC(=O)Nc2ccc(Nc3nc(C)cc(Nc4ccc(C)cc4)n3)cc2)cc1`, the GI50 is 1.88 µM with BT-549 breast; 1.63 µM with HCT-15 colon; 1.79 µM in the test with LOX IMVI melanoma; 1.83 µM in the test with MALME-3M melanoma; 1.71 µM with SF-295 CNS; 1.78 µM with T-47D breast. The TGI with BT-549 breast worked out at 4.24 µM; in the test with HCT-15 colon, 3.29 µM; with LOX IMVI melanoma it was 3.35 µM; in the test on MALME-3M melanoma it was 3.58 µM; in the test with SF-295 CNS, 3.18 µM; in the test on T-47D breast, 4.24 µM.

For `CCN(Cc1nc2cc(C(F)(F)F)ccc2nc1-c1ccccc1)c1ccc(OC)c(OC)c1`, the GI50 was 13.4 µM in the test on BT-549 breast; 16.3 µM in the test with HCT-15 colon; 4.46 µM in the test with HL-60(TB) leukemia; 14.9 µM in the test with HT29 colon; 19.9 µM in the test on KM12 colon; 14.2 µM in the test on LOX IMVI melanoma. Further, the figures for the GI50 in the test on NCI-H23 lung, with SF-295 CNS and in the test on T-47D breast were 13.5 µM, 15.7 µM and 18.5 µM, respectively. Further, the TGI was 31.7 µM in the test on BT-549 breast; 34.5 µM in the test with HCT-15 colon; 17.6 µM with HL-60(TB) leukemia; more than 100 µM in the test on HT29 colon; 43.6 µM with KM12 colon; 27.2 µM with LOX IMVI melanoma. The TGI in the test on NCI-H23 lung turned out to be 34.2 µM; in the test with SF-295 CNS, 31.8 µM; in the test on T-47D breast, 61.2 µM.

As for `CCOC(=O)c1cc2cc(NC(=O)c3cc4cc([N+](=O)[O-])ccc4n3C)ccc2n1C`, the GI50 was 11.6 µM with BT-549 breast; 15.4 µM in the test on HCT-15 colon; more than 100 µM in the test on HL-60(TB) leukemia; 24.9 µM in the test on HT29 colon; 49 µM in the test with KM12 colon; 13.1 µM in the test on LOX IMVI melanoma. The GI50 in the test with NCI-H23 lung was 12.3 µM; in the test on SF-295 CNS it was 30.1 µM; in the test with T-47D breast it was 42 µM. Further, the TGI in the test with BT-549 breast was 35.3 µM; in the test on HCT-15 colon, 51.6 µM; with HL-60(TB) leukemia, more than 100 µM; in the test on HT29 colon, more than 100 µM; in the test with KM12 colon, more than 100 µM; in the test on LOX IMVI melanoma, 28 µM. The TGI was 37 µM in the test on NCI-H23 lung, more than 100 µM in the test with SF-295 CNS and more than 100 µM in the test with T-47D breast.

For `CCCCSCc1nc2nc(Cl)c(Cl)nc2[nH]1`, the TGI in the test with BT-549 breast is 79.4 µM; with HCT-15 colon it was 85.5 µM; in the test with HT29 colon, more than 100 µM; in the test with KM12 colon it was more than 100 µM; with LOX IMVI melanoma it was 44.5 µM; with MALME-3M melanoma it was 53.6 µM. Also, the TGI in the test on NCI-H23 lung came out at 44.6 µM; with SF-295 CNS, 45.6 µM; in the test with T-47D breast it was 62.9 µM.
